{"source": "patent US9902717B2", "about": "“Process of preparing potassium salt of Azilsartan medoxomil” (Unichem Laboratories Limited, priority 2015, dated 2018)", "assay": "Stability study of polymorph U of Azilsartan Kamedoxomil at 5±3° C. for 6 months", "assay_type": "physicochemical", "conditions": "for 01) Description White to off-white coloured powder / 02) Identification By HPLC: retention time of the major peak should correspond to Azilsartan Kamedoxomil Standard preparation / 03) Loss on drying (at 60° C. under vacuum for 3 hrs) NMT 1.0% w/w / 04) Related substances Method 1: By HPLC (by Area %) i) Azilsartan NMT 1.0% / 04) Related substances Method 1: By HPLC (by Area %) ii) Azilsartan ester NMT 0.3% / 04) Related substances Method 1: By HPLC (by Area %) iii) Impurity at RRT about 1.04 NMT 0.3% / 04) Related substances Method 1: By HPLC (by Area %) iv) Any individual unspecified impurity NMT 0.2% / 04) Related substances Method 1: By HPLC (by Area %) v) Total impurities NMT 2.5% / 04) Related substances Method 2: By GCHS i) Content of 2, 3 butanedione by GCHS: NMT 0.5% / 05) Assay by HPLC (On dried basis) NLT 97.5% w/w and NMT 102.0% w/w: stability testing at 5±3° C.", "data": [{"compound": "CCOc1nc2cccc(C(=O)OCc3oc(=O)oc3C)c2n1Cc1ccc(-c2ccccc2-c2noc(=O)[nH]2)cc1.[K]", "note": "[polymorph U, (5-methyl-2-oxo-1,3-dioxo-4-yl)methyl-2-ethoxy-1-1{[2′-(5-oxo-4,5-dihydro-1,2,4-oxadiazol-3-yl)biphenyl-4yl]methyl}-1H-benzimidazole-7-carboxylate monopotassium salt]", "values": [{"measurement": "change in XRPD pattern (polymorphic change)", "setting": "stability testing at 5±3° C. for 6 Months", "result": "no change"}, {"measurement": "01) Description White to off-white coloured powder", "setting": "6 M", "result": "White"}, {"measurement": "02) Identification By HPLC: retention time of the major peak should correspond to Azilsartan Kamedoxomil Standard preparation", "setting": "6 M", "result": "Complies"}, {"measurement": "03) Loss on drying (at 60° C. under vacuum for 3 hrs) NMT 1.0% w/w", "setting": "6 M", "result": 0.26, "unit": "% w/w"}, {"measurement": "04) Related substances Method 1: By HPLC (by Area %) i) Azilsartan NMT 1.0%", "setting": "6 M", "result": 0.18, "unit": "%"}, {"measurement": "04) Related substances Method 1: By HPLC (by Area %) ii) Azilsartan ester NMT 0.3%", "setting": "6 M", "result": 0.01, "unit": "%"}, {"measurement": "04) Related substances Method 1: By HPLC (by Area %) iii) Impurity at RRT about 1.04 NMT 0.3%", "setting": "6 M", "result": 0.08, "unit": "%"}, {"measurement": "04) Related substances Method 1: By HPLC (by Area %) iv) Any individual unspecified impurity NMT 0.2%", "setting": "6 M", "result": 0.03, "unit": "%"}, {"measurement": "04) Related substances Method 1: By HPLC (by Area %) v) Total impurities NMT 2.5%", "setting": "6 M", "result": 0.43, "unit": "%"}, {"measurement": "04) Related substances Method 2: By GCHS i) Content of 2, 3 butanedione by GCHS: NMT 0.5%", "setting": "6 M", "result": 0.13, "unit": "%"}, {"measurement": "05) Assay by HPLC (On dried basis) NLT 97.5% w/w and NMT 102.0% w/w", "setting": "6 M", "result": 100.3, "unit": "% w/w"}, {"measurement": "01) Description White to off-white coloured powder", "setting": "Initial", "result": "White"}, {"measurement": "02) Identification By HPLC: retention time of the major peak should correspond to Azilsartan Kamedoxomil Standard preparation", "setting": "Initial", "result": "Complies"}, {"measurement": "03) Loss on drying (at 60° C. under vacuum for 3 hrs) NMT 1.0% w/w", "setting": "Initial", "result": 0.44, "unit": "% w/w"}, {"measurement": "04) Related substances Method 1: By HPLC (by Area %) i) Azilsartan NMT 1.0%", "setting": "Initial", "result": 0.19, "unit": "%"}, {"measurement": "04) Related substances Method 1: By HPLC (by Area %) ii) Azilsartan ester NMT 0.3%", "setting": "Initial", "result": 0.01, "unit": "%"}, {"measurement": "04) Related substances Method 1: By HPLC (by Area %) iii) Impurity at RRT about 1.04 NMT 0.3%", "setting": "Initial", "result": 0.09, "unit": "%"}, {"measurement": "04) Related substances Method 1: By HPLC (by Area %) iv) Any individual unspecified impurity NMT 0.2%", "setting": "Initial", "result": 0.03, "unit": "%"}, {"measurement": "04) Related substances Method 1: By HPLC (by Area %) v) Total impurities NMT 2.5%", "setting": "Initial", "result": 0.56, "unit": "%"}, {"measurement": "04) Related substances Method 2: By GCHS i) Content of 2, 3 butanedione by GCHS: NMT 0.5%", "setting": "Initial", "result": 0.13, "unit": "% w/w"}, {"measurement": "05) Assay by HPLC (On dried basis) NLT 97.5% w/w and NMT 102.0% w/w", "setting": "Initial", "result": 101.7, "unit": "w/w"}, {"measurement": "Stability", "setting": "studied at 5±3° C.", "result": "stable"}]}]}
